In one assay the test system is LDLR−/− mice. The experiment in a line: LDLR−/− serum lipid modulation. It counts as in vivo. The settings on record: male LDLR−/− mice on western diet, 10 mg/kg, oral gavage once daily for seven days. The procedure:
Acclimate animals for two weeks prior to study initiation. House mice individually in polycarbonate cages with filter tops, and maintain mice on a 12:12 hour light-dark cycle (lights on at 6:00 AM) at 21° C. Provide deionized water ad libitum and maintain for two weeks on ‘western diet’ TD 88137 Diet (42% fat, 0.15% cholesterol, Harlan Teklad) ad libitum. Optimize groups of five ten-week-old male LDLR−/− mice based on serum triglyceride and cholesterol levels. Dose groups once daily by oral gavage with various doses of the test compound dissolved in 5% EtOH/5% Solutol in NaCMC (1%), SLS (0.5%), antifoam (0.05%), Povidone (0.085%) for seven days. At the end of the seven-day dosing period, collect blood by cardiac puncture after asphyxiation in a CO2 chamber. […] Lipoproteins were separated by fast protein liquid chromatography, and cholesterol was quantitated with an in-line detection system. […] The colored product produced in the presence of cholesterol was monitored in the flow stream at 505 nm, and the analog voltage from the monitor was converted to a digital signal for collection and analysis. The change in voltage corresponding to change in cholesterol concentration was plotted vs. time, and the area under the curve corresponding to the elution of VLDL-C and HDL-C was calculated using Turbochrome (version 4.12F12) software from PerkinElmer (Norwalk, Conn.). […]

The next assay addresses T1, FXR (Homo sapiens, UniProt Q96RI1).
T1 construct: Plate human hepatocarcinoma Huh7 cells grown in DMEM:F12 with 10% fetal bovine serum; endogenous in cells; host or cells: Huh7 (human hepatocarcinoma)
T1 sequence (Q96RI1 1-486): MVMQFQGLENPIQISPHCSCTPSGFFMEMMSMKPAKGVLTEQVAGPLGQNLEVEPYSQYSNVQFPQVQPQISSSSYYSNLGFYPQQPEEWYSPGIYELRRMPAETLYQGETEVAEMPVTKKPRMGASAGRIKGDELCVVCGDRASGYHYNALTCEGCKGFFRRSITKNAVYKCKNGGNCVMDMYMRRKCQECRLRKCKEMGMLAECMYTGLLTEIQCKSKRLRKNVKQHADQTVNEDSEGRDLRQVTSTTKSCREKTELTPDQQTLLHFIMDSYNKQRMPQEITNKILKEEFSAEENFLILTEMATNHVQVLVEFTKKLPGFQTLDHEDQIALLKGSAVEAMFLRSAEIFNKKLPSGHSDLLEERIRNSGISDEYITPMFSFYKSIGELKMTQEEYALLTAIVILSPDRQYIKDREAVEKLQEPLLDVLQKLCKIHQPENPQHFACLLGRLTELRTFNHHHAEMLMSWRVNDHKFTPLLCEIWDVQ
Kind of assay: bDNA assay for SHP mRNA. It counts as cell-based. The conditions noted are these: human hepatocarcinoma Huh7 cells, 24 hours, bDNA signal; read-out: SHP gene activation EC50. From the text:
FXR is a key, direct transcriptional regulator of the Small Heterodimer Partner (SHP) gene, accession number NM_021969, an atypical member of the nuclear receptor family that lacks a DNA-binding domain. SHP interacts with several conventional and orphan members of the nuclear receptor superfamily, including retinoid receptors and thyroid hormone receptor. SHP inhibits transactivation potential of superfamily members with which it interacts. […] Since FXR directly transactivates transcription of the SHP gene, the SHP branched DNA method (bDNA) quantitates FXR activation by ligands. Thus, increased expression of SHP mRNA, as determined by increase bDNA signal, signifies engagement of FXR by an agonist.
Plate human hepatocarcinoma Huh7 cells grown in DMEM:F12 with 10% fetal bovine serum and in 96 well plate at the density of 1×10^5/well. After overnight incubation, treat the cells with test compounds at various concentrations for 24 hours. […]
Incubate the lysis buffer for 15-minute at 37° C., then transfer 100 μL of the lysate from each well to the corresponding wells of the capture plate. […] Label the mRNA to be measured by addition of 100 μL QuantiGene® label probe working buffer then incubate for 60 minutes at 46° C. […] Incubate the plates at 37° C. for up to 30 minutes and then read on a luminometer (Packard Fusion Alpha, 1 second detection) to detect the luminescent signal. […]

As for `Cc1cc(CN(C)c2ccc(OCc3c(C(C)C)nnn3-c3c(Cl)cccc3Cl)cc2C)ccc1C(=O)O` [Example 13, 4-[({4-[5-Isopropyl-3-(2,6-dichloro-phenyl)-3H-[1,2,3]triazol-4-ylmethoxy]-2-methyl-phenyl}-methyl-amino)-methyl]-2-methyl-benzoic acid], in the assay on LDLR−/− mice, the “lowering of total cholesterol” value turned out to be 60% and the lowering of triglycerides is 63%.
Consider `Cc1cc(OCc2c(C(C)C)nnn2-c2c(Cl)cccc2Cl)ccc1N(C)Cc1ccc(C(=O)O)cc1` [Example 42, 4-[({4-[5-Isopropyl-3-(2,6-Dichloro-phenyl)-3H-[1,2,3]triazol-4-ylmethoxy]-2-methyl-phenyl}-methyl-amino)-methyl]-benzoic acid], for which, at FXR, the EC50 is about 370 nM.

For orientation: EC50 means the concentration needed to bring the measured effect to its halfway point.

For the origin of these results see patent publication US8106077B2, “Compounds and methods for modulating FXR” (Eli Lilly and Company, priority 2007, dated 2012).
